Results as given in the supplement of paper PMC10627819.

Assays:
B. subtilis 168 [1] = experiment: Bliss interaction score (quartile over a dose matrix) (fitness difference); higher = more antagonism (negative = synergy)
In short: (§1)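 The Bliss score subtracts expected fitness, the product of the single-drug fitness values, from observed fitness. Fitness is plate-normalised OD595 at entry into stationary phase, relative to the robust no-drug mean and capped at 1, with single-drug fitness inferred from combinations. Summaries are quartiles over technical, biological and donor/recipient replicates.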

S. aureus Newman [2] = experiment: as above
In short: as §1

S. aureus DSM 20231 [3] = experiment: as above
In short: as §1

S. pneumoniae D39V [4] = experiment: as above
In short: as §1

B. subtilis 168 [5] = experiment: fitness (endpoint OD595 vs no drug) (fraction); higher = more growth
In short: (§2)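 Volumes were 30 µl per well, or 55 µl for S. pneumoniae, in 384-well plates inoculated at OD595 0.01. Media were TSB, LB Lennox or CY at 37 °C, and OD595 was read every 30 min for 14 h with first-reading background subtraction. Fitness is the ratio of optical density at stationary-phase entry to the robust mean of no-drug controls. That ratio is capped at 1.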

S. aureus Newman [6] = experiment: as above
In short: as §2

S. aureus DSM 20231 [7] = experiment: as above
In short: as §2

S. pneumoniae D39V [8] = experiment: as above
In short: as §2
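Wherever Bliss interaction score (quartile over a dose matrix) is given: first quartile when negative (synergy) and third quartile when positive (antagonism).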

C[n+]1ccc(-c2cc[n+](C)cc2)cc1 [Paraquat] + CCN(CC)CCOC(=O)c1ccc(N)cc1 [Procaine]
Conditions | Bliss interaction score
B. subtilis 168 [1] | 0.0621
S. aureus DSM 20231 [3] | 0.0567
S. aureus Newman [2] | 0.0516
S. pneumoniae D39V [4] | 0.0315

fitness
Conditions | first compound 1.25 µg/mL | first compound 1.5 µg/mL | first compound 2.5 µg/mL | first compound 3 µg/mL | first compound 5 µg/mL | first compound 6 µg/mL
B. subtilis 168 [5], partner 85.5 µg/mL | 0.954 | – | 0.877 | – | 0.813 | –
B. subtilis 168 [5], partner 171 µg/mL | 0.943 | – | 0.935 | – | 0.837 | –
B. subtilis 168 [5], partner 342 µg/mL | 0.89 | – | 0.89 | – | 0.812 | –
S. aureus DSM 20231 [7], partner 85.5 µg/mL | 0.906 | – | 0.944 | – | 0.95 | –
S. aureus DSM 20231 [7], partner 171 µg/mL | 0.936 | – | 0.981 | – | 0.996 | –
S. aureus DSM 20231 [7], partner 342 µg/mL | 0.966 | – | 0.97 | – | 0.98 | –
S. aureus Newman [6], partner 85.5 µg/mL | 0.959 | – | 0.917 | – | 0.948 | –
S. aureus Newman [6], partner 171 µg/mL | 0.956 | – | 0.909 | – | 0.951 | –
S. aureus Newman [6], partner 342 µg/mL | 0.944 | – | 0.947 | – | 0.937 | –
S. pneumoniae D39V [8], partner 85.5 µg/mL | – | ≥ 1 | – | ≥ 1 | – | ≥ 1
S. pneumoniae D39V [8], partner 171 µg/mL | – | ≥ 1 | – | 0.998 | – | ≥ 1
S. pneumoniae D39V [8], partner 342 µg/mL | – | 0.988 | – | 0.971 | – | 0.951

C[n+]1ccc(-c2cc[n+](C)cc2)cc1 [Paraquat] + CN1C2=CC=CC=C2N=C3C1=CC=CC3=O [Pyocyanin]
Conditions | Bliss interaction score
B. subtilis 168 [1] | -0.0646
S. aureus DSM 20231 [3] | -0.0554
S. aureus Newman [2] | 0.0765
S. pneumoniae D39V [4] | -0.0783

fitness
Conditions | first compound 1.25 µg/mL | first compound 1.5 µg/mL | first compound 2.5 µg/mL | first compound 3 µg/mL | first compound 5 µg/mL | first compound 6 µg/mL
B. subtilis 168 [5], partner 1.25 µg/mL | 0.918 | – | 0.903 | – | 0.802 | –
B. subtilis 168 [5], partner 2.5 µg/mL | 0.866 | – | 0.838 | – | 0.673 | –
B. subtilis 168 [5], partner 5 µg/mL | 0.721 | – | 0.707 | – | 0.534 | –
S. aureus DSM 20231 [7], partner 1.25 µg/mL | 0.918 | – | 0.931 | – | 0.905 | –
S. aureus DSM 20231 [7], partner 2.5 µg/mL | 0.891 | – | 0.879 | – | 0.858 | –
S. aureus DSM 20231 [7], partner 5 µg/mL | 0.627 | – | 0.647 | – | 0.595 | –
S. aureus Newman [6], partner 1.25 µg/mL | 0.838 | – | 0.799 | – | 0.825 | –
S. aureus Newman [6], partner 2.5 µg/mL | 0.821 | – | 0.776 | – | 0.751 | –
S. aureus Newman [6], partner 5 µg/mL | 0.401 | – | 0.382 | – | 0.366 | –
S. pneumoniae D39V [8], partner 0.325 µg/mL | – | ≥ 1 | – | ≥ 1 | – | ≥ 1
S. pneumoniae D39V [8], partner 0.65 µg/mL | – | 0.954 | – | 0.97 | – | 0.955

S. pneumoniae D39V [8], partner 1.3 µg/mL, one replicate
Conditions | fitness
first compound 1.5 µg/mL | 0.528
first compound 3 µg/mL | 0.597
first compound 6 µg/mL | 0.601

C[n+]1ccc(-c2cc[n+](C)cc2)cc1 [Paraquat] + CN(N=O)C(=O)N[C@@H](C=O)[C@@H](O)[C@H](O)[C@H](O)CO [Streptozotocin]
Conditions | Bliss interaction score
B. subtilis 168 [1] | 0.0356
S. aureus DSM 20231 [3] | -0.0445
S. aureus Newman [2] | -0.0522
S. pneumoniae D39V [4] | 0.0357

fitness, B. subtilis 168 [5], one replicate
Conditions | first compound 1.25 µg/mL | first compound 2.5 µg/mL | first compound 5 µg/mL
partner 0.15 µg/mL | ≥ 1 | ≥ 1 | 0.845
partner 0.3 µg/mL | ≥ 1 | 0.964 | 0.851
partner 0.6 µg/mL | 0.945 | 0.956 | 0.776

fitness
Conditions | first compound 1.25 µg/mL | first compound 1.5 µg/mL | first compound 2.5 µg/mL | first compound 3 µg/mL | first compound 5 µg/mL | first compound 6 µg/mL
S. aureus DSM 20231 [7], partner 0.15 µg/mL | 0.865 | – | 0.835 | – | 0.774 | –
S. aureus DSM 20231 [7], partner 0.3 µg/mL | 0.795 | – | 0.842 | – | 0.758 | –
S. aureus DSM 20231 [7], partner 0.6 µg/mL | 0.679 | – | 0.689 | – | 0.636 | –
S. aureus Newman [6], partner 0.15 µg/mL | 0.781 | – | 0.769 | – | 0.727 | –
S. aureus Newman [6], partner 0.3 µg/mL | 0.66 | – | 0.654 | – | 0.637 | –
S. aureus Newman [6], partner 0.6 µg/mL | 0.523 | – | 0.536 | – | 0.508 | –
S. pneumoniae D39V [8], partner 1.2 µg/mL | – | 0.989 | – | 0.983 | – | 0.969
S. pneumoniae D39V [8], partner 2.4 µg/mL | – | 0.97 | – | 0.926 | – | 0.977
S. pneumoniae D39V [8], partner 4.8 µg/mL | – | 0.944 | – | 0.955 | – | 0.933

C[n+]1ccc(-c2cc[n+](C)cc2)cc1 [Paraquat] + CN[C@@H]1[C@H](O)[C@H](NC)[C@H]2O[C@@]3(O)C(=O)C[C@@H](C)O[C@H]3O[C@@H]2[C@H]1O [Spectinomycin]
Conditions | Bliss interaction score
B. subtilis 168 [1] | 0.0537
S. aureus DSM 20231 [3] | -0.046
S. aureus Newman [2] | 0.0596
S. pneumoniae D39V [4] | 0.0349

fitness
Conditions | first compound 1.25 µg/mL | first compound 1.5 µg/mL | first compound 2.5 µg/mL | first compound 3 µg/mL | first compound 5 µg/mL | first compound 6 µg/mL
B. subtilis 168 [5], partner 2 µg/mL | 0.97 | – | 0.989 | – | 0.902 | –
B. subtilis 168 [5], partner 4 µg/mL | 0.986 | – | 0.964 | – | 0.847 | –
B. subtilis 168 [5], partner 8 µg/mL | 0.877 | – | 0.882 | – | 0.847 | –
S. aureus DSM 20231 [7], partner 4 µg/mL | 0.946 | – | 0.909 | – | 0.844 | –
S. aureus DSM 20231 [7], partner 8 µg/mL | 0.913 | – | 0.844 | – | 0.817 | –
S. aureus DSM 20231 [7], partner 16 µg/mL | 0.837 | – | 0.874 | – | 0.758 | –
S. aureus Newman [6], partner 4 µg/mL | 0.857 | – | 0.85 | – | 0.825 | –
S. aureus Newman [6], partner 8 µg/mL | 0.872 | – | 0.825 | – | 0.906 | –
S. aureus Newman [6], partner 16 µg/mL | 0.89 | – | 0.849 | – | 0.833 | –
S. pneumoniae D39V [8], partner 4 µg/mL | – | 0.964 | – | 0.976 | – | 0.995
S. pneumoniae D39V [8], partner 8 µg/mL | – | 0.958 | – | 0.969 | – | 0.951

fitness, one replicate
Conditions | first compound 1.25 µg/mL | first compound 1.5 µg/mL | first compound 2.5 µg/mL | first compound 3 µg/mL | first compound 5 µg/mL | first compound 6 µg/mL
S. aureus DSM 20231 [7], partner 32 µg/mL | 0.669 | – | 0.713 | – | 0.735 | –
S. aureus DSM 20231 [7], partner 64 µg/mL | 0.0748 | – | 0.0594 | – | 0.0636 | –
S. aureus Newman [6], partner 32 µg/mL | 0.62 | – | 0.6 | – | 0.563 | –
S. aureus Newman [6], partner 64 µg/mL | 0.0529 | – | 0.0827 | – | 0.106 | –
S. pneumoniae D39V [8], partner 16 µg/mL | – | 0.851 | – | 0.856 | – | 0.913

C[n+]1ccc(-c2cc[n+](C)cc2)cc1 [Paraquat] + COc1ccc(C[C@H](N)C(=O)N[C@H]2[C@@H](O)[C@H](n3cnc4c(N(C)C)ncnc43)O[C@@H]2CO)cc1 [Puromycin]
Conditions | Bliss interaction score
B. subtilis 168 [1] | 0.0238
S. aureus DSM 20231 [3] | 0.0717
S. aureus Newman [2] | 0.0892
S. pneumoniae D39V [4] | 0.135

fitness
Conditions | first compound 1.25 µg/mL | first compound 1.5 µg/mL | first compound 2.5 µg/mL | first compound 3 µg/mL | first compound 5 µg/mL | first compound 6 µg/mL
B. subtilis 168 [5], partner 0.39 µg/mL | 0.957 | – | 0.913 | – | 0.792 | –
B. subtilis 168 [5], partner 0.78 µg/mL | 0.924 | – | 0.894 | – | 0.779 | –
B. subtilis 168 [5], partner 1.56 µg/mL | 0.883 | – | 0.858 | – | 0.747 | –
S. aureus DSM 20231 [7], partner 0.39 µg/mL | 0.978 | – | 0.98 | – | 0.977 | –
S. aureus DSM 20231 [7], partner 0.78 µg/mL | 0.97 | – | ≥ 1 | – | 0.983 | –
S. aureus DSM 20231 [7], partner 1.56 µg/mL | 0.964 | – | ≥ 1 | – | 0.989 | –
S. aureus Newman [6], partner 0.39 µg/mL | 0.937 | – | 0.965 | – | 0.979 | –
S. aureus Newman [6], partner 0.78 µg/mL | ≥ 1 | – | 0.99 | – | 0.981 | –
S. aureus Newman [6], partner 1.56 µg/mL | ≥ 1 | – | 0.971 | – | 0.994 | –
S. pneumoniae D39V [8], partner 1 µg/mL | – | 0.996 | – | ≥ 1 | – | ≥ 1
S. pneumoniae D39V [8], partner 2 µg/mL | – | 0.973 | – | 0.982 | – | 0.966
S. pneumoniae D39V [8], partner 4 µg/mL | – | 0.852 | – | 0.856 | – | 0.861

fitness, S. aureus DSM 20231 [7], one replicate
Conditions | first compound 1.25 µg/mL | first compound 2.5 µg/mL | first compound 5 µg/mL
partner 3.12 µg/mL | 0.926 | 0.976 | 0.965
partner 6.24 µg/mL | 0.732 | 0.703 | 0.689
